The values that follow are results of earlier work, collected in patent EP3085364A1, “PHARMACEUTICAL COMBINED PREPARATION CONTAINING HMG-COA REDUCTASE INHIBITOR AND CHOLESTEROL ABSORPTION INHIBITOR” (Alvogen Korea Co., Ltd., priority 2013, dated 2015).

Like-named read-outs stand apart in the source and are kept apart here.

For data set [1] the following is noted: room temperature.

Regarding `O=C1[C@H](CC[C@H](O)c2ccc(F)cc2)[C@@H](c2ccc(O)cc2)N1c1ccc(F)cc1` [Ezetimibe, 1-(4-fluorophenyl)-(3R)-[3-(4-fluorophenyl)-(3S)-hydroxypropyl]-(4S)-(4-hydroxyphenyl)-2-azetidinone], the solubility in water result is “practically insoluble”. Besides, the “solubility in organic solvents” value (ethanol, methanol, or acetone) is on record as “freely to very soluble”. Besides, in data set [1], the stability result was “stable”.

Consider `CC(C)c1nc(N(C)S(C)(=O)=O)nc(-c2ccc(F)cc2)c1/C=C/[C@@H](O)C[C@@H](O)CC(=O)O` [Rosuvastatin calcium, (E)-7-[4-(4-fluorophenyl)-6-isopropyl-2-[methyl(methylsulfonyl)amino]pyrimidin-5-yl]-(3R,5S)-3,5-dihydroxyhept-6-enic acid], for which the solubility in water result is on record as “sparingly soluble”. For the same compound, the “solubility in organic solvents” value (N,N-dimethylformamide, acetone, or acetonitrile) is on record as “soluble”.
